In PubChem BioAssay (NCI):
“And” between values parts separate entries of the source, which are not always exact repeats. Identical values can stand only once.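 A five-concentration, 48-hour dose response in 96-well plates underlies each endpoint, interpolated linearly between surrounding concentrations. The concentration for 50% growth inhibition is given as GI50. TGI: total growth inhibition.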

Columns and labels:
Assay in all cases: DTP human tumour cell line panel, 48 h
HCT-15 colon = system: HCT-15 colon
SK-MEL-28 melanoma = system: SK-MEL-28 melanoma
UACC-62 melanoma = system: UACC-62 melanoma
HOP-62 NSCLC = system: HOP-62 NSCLC
SW-620 colon = system: SW-620 colon
NCI-H226 lung = system: NCI-H226 lung
OVCAR-8 ovarian = system: OVCAR-8 ovarian
M14 melanoma = system: M14 melanoma
TK-10 renal = system: TK-10 renal
MCF7 breast = system: MCF7 breast

SMILES	GI50 (HCT-15 colon) [µM]	TGI (HCT-15 colon)	GI50 (SK-MEL-28 melanoma) [µM]	TGI (SK-MEL-28 melanoma)	GI50 (UACC-62 melanoma) [µM]	TGI (UACC-62 melanoma)	GI50 (HOP-62 NSCLC) [µM]	TGI (HOP-62 NSCLC)	GI50 (SW-620 colon) [µM]	TGI (SW-620 colon)	GI50 (NCI-H226 lung) [µM]	TGI (NCI-H226 lung)	GI50 (OVCAR-8 ovarian) [µM]	TGI (OVCAR-8 ovarian)	GI50 (M14 melanoma) [µM]	TGI (M14 melanoma)	GI50 (TK-10 renal) [µM]	TGI (TK-10 renal)	GI50 (MCF7 breast) [µM]	TGI (MCF7 breast)
COc1ccc2nc(-c3ccccc3)cc(Nc3cccc(/C(C)=N\O)c3)c2c1	29.8	> 100 µM	57.7	> 100 µM	5.42	30.5 µM	1.84	4.27 µM	19.4	> 100 µM	3.18	11.1 µM	3	> 100 µM	5.04	> 100 µM	2.56	9.69 µM	16.8	> 100 µM
Cc1cc2c(cc1C)NC1=C(N2)OC(c2c[nH]c3ccc(COc4ccccc4)cc23)C1=O (centres undefined)		> 100 µM		> 100 µM		> 100 µM		49.8 µM		> 100 µM		> 100 µM		> 100 µM		> 100 µM		> 100 µM		> 100 µM
O=C(Nc1ccc(OC(F)(F)F)cc1)c1sccc1NCc1ccnc2ccccc12	3.22	> 66.7 µM	5.64	> 100 µM	1.89	14.9 µM	9.55	> 100 µM	5.03	> 100 µM	2.89	> 90.6 µM	4.18	> 56.4 µM	2.74	30.6 µM	4.87	98.6 µM	4.19	36 µM
Clc1ccc(COC(Cn2ccnc2)c2ccc(Cl)cc2Cl)cc1 (centres undefined)	3.24	12.7 µM and 27.5 µM	4.66	16.6 µM and 34.6 µM and 30 µM	2.16	11.9 µM and 25.2 µM and 22.3 µM	3.02	13.6 µM and 26.8 µM and 35.6 µM	2.96	13.3 µM and 27.4 µM and 29.2 µM		22.1 µM and 50 µM and 11.7 µM	1.7	10.1 µM and 28.7 µM and 32.8 µM	2.92	10.2 µM and 29.8 µM and 26.2 µM	2.68	7.15 µM and 29 µM and 23.9 µM	2.43	6.63 µM and 28.7 µM and 24 µM
CC(CO)[C@H]1OC(=O)C=C2[C@@]13O[C@@H]3[C@H]1OC(=O)[C@@]3(C)[C@H]4O[C@H]4C[C@@]2(C)[C@@H]13 (some centres undefined)		> 31 µM		> 100 µM		7.36 µM		> 100 µM		> 100 µM		5.47 µM		9.02 µM		> 22.8 µM		> 28.2 µM		8.05 µM
